For one data set, the target named is T1, HIPHUM0000007 (Homo sapiens, UniProt Q9NS75).
T1 construct: expressed in transfected cells; host or cells: CHO cells with stably integrated NFAT-luciferase reporter (CHONFAT)
T1 sequence (Q9NS75 1-346): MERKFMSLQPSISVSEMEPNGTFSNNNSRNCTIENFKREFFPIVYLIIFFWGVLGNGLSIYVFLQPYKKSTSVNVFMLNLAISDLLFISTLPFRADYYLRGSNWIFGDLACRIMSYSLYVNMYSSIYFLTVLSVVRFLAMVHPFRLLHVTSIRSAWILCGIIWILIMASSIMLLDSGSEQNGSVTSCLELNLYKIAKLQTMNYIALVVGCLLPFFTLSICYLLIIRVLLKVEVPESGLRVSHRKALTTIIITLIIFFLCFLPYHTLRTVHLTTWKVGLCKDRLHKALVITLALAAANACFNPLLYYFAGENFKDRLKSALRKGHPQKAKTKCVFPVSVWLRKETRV
Kind of data set: Antagonist activity against 20 nM LTD4 (NFAT luciferase reporter gene assay and FLIPR assay) at HIPHUM0000007. Format: cell-based. The conditions noted are these: concentration dependent inhibition of 20 nM LTD4; reporter gene and FLIPR assays.

The next data set has as its target T2, CysLT1 (Homo sapiens, UniProt Q9Y271).
T2 construct: expressed in transfected cells; host or cells: CHO cells with stably integrated NFAT-luciferase reporter (CHONFAT)
T2 sequence (Q9Y271 1-337): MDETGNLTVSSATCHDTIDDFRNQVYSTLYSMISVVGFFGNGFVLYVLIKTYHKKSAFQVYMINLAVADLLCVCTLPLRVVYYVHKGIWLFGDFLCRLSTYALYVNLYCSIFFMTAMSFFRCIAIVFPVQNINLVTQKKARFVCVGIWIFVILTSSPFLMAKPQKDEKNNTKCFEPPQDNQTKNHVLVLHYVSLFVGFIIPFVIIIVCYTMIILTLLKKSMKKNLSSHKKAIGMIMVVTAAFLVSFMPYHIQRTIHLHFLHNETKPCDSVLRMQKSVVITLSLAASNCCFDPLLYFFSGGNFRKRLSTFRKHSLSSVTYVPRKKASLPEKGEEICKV
Kind of data set: Antagonist activity against 20 nM LTD4 (NFAT luciferase reporter gene assay and FLIPR assay) at CysLT1. The class given is cell-based. The conditions noted are these: concentration dependent inhibition of 20 nM LTD4; reporter gene and FLIPR assays.

A further data set relates to anesthetized rats. The data set is described as follows: Effect of LTD4 on hemodynamics and ECG parameters in anesthetized rats. Format: in vivo. As to the method: Adult male wistar rats (270-300 g) were used. On arrival in the animal care unit, rats were housed with free access to food and water. Room temperature (19-20° C.), relative humidity (55-60%) and light (switched on 7:00am-7:00pm) were maintained constant. An adaptation period of at least 6 days was respected before experimentation.
Aninals (n=3-4) were anesthetized by administration of pentobarbital (50/60 mg/kg, i.v.). Then, animals were placed on a heatcd (36° C.) operating table and ventilated with room air (Harvard respirator, 50-52 str/min, 7 ml/kg tidal volume). Systemic arterial blood pressure was monitored routinely from the left carotid artery (P23XL, Gould). Body temperature was controlled with a thermistor probe (Digi-sense, Cole-Parmer) and maintained within physiological range throughout the experiment by heating when necessary. A Lead 11 ECG was recorded via needle electrodes to evaluate ECG intervals and heart rate and a corrected QT interval by linear regression (QTL) was calculated according to Todt(13). All parameters were monitored on a Gould thermal array polyrecorder.
The volume of injection was normalized to 1 ml/kg. In rats receiving CysLT1 antagonists as pretreatment, the compounds were previously dissolved in ethanol (2% final concentration) or distilled water and mixed in encapsin 6% for intragastric afministration (single dose of 3 μmol/kg-10 ml/kg total volume).
Results were expressed as mean±SEM Hemodynamic and electrocardiographic variables were compared using Anova followed by multiple comparisons tests (Newmam Keuls or Tukey's test as appropriate). Values of p <0.05 were considered significant.

Structures are written as SMILES.

`CCCCC/C=C\C\C=C/C=C/C=C/[C@@H](Sc1ccc(C(=O)O)cc1)[C@@H](O)CCCC(=O)O` [BayU9773]: the “antagonist activity at HIPHUM0000007” value at HIPHUM0000007 is recorded as “low potency”. Moreover, the “antagonist activity at CysLT1” value at CysLT1 was “low potency”.

`CCCCC/C=C\C\C=C/C=C/C=C/[C@@H](SC[C@H](N)C(=O)NCC(=O)O)[C@@H](O)CCCC(=O)O` [LTD4]: the “effect on blood pressure” value in the data set with anesthetized rats (LTD4 i.v. injection 20, 40 and 100 nmol/kg, anesthetized rats) is reported as “affected blood pressure in a dose-dependent manner”. Also, the “reduction in heart rate” value with anesthetized rats (bolus intravenous administration of LTD4, anesthetized rats) is 20-30%. The “rhythm disturbances (arrhythmias)” value in the data set with anesthetized rats (repeated administration of LTD4, doses in the range of 40 to 60 nmol/kg, anaesthetised rats) is “induced marked rhythm disturbances”. Consider `CN(C)C(=O)CCSC(SCCC(=O)O)c1cccc(/C=C/c2ccc3ccc(Cl)cc3n2)c1` (stereo not drawn) [MK571], for which the “effect of CysLT1 antagonist on LTD4 response on blood pressure” value with anesthetized rats (antagonist 3 μmol/kg oral 10 min or 0.3 μmol/kg i.v. 5 min before LTD4 i.v., anesthetized rats) is recorded as “modest partial inhibition”. Further, the “effect of pretreatment on LTD4-induced reduction in heart rate” value in the data set with anesthetized rats (pretreatment with CysLT1 antagonist before LTD4 i.v., anesthetized rats) is “not significantly altered”. For `CC(C)(O)c1ccccc1CC[C@@H](SCC1(CC(=O)O)CC1)c1cccc(/C=C/c2ccc3ccc(Cl)cc3n2)c1` [Montelukast], the “antagonist activity at HIPHUM0000007” value on HIPHUM0000007 was “inactive”.

For `COc1cc(C(=O)NS(=O)(=O)c2ccccc2C)ccc1Cc1cn(C)c2ccc(NC(=O)OC3CCCC3)cc12` [Zafirlukast], the “antagonist activity at CysLT1” value at CysLT1 was “acted as antagonists”.

The record behind these values is patent US20040023861A1, “Cysteinyl leukotriene receptor 2 (cysl t2)” (priority 2000, published 2004).
